Laboratory results: ChEMBL document CHEMBL4819154, “Discovery of quinuclidine modulators of cellular progranulin” (Bioorg Med Chem Lett, 2021)
Values after ≈ are worked out from the molar mass of the structure shown.

What was measured:
[1] = Increase of PGRN level in mouse microglial BV-2 cell relative to control; format: functional
[2] = Oral bioavailability in rat; format: ADME, organism-based; conditions: in vivo, dose 10 mg/kg
[3] = Oral bioavailability in mouse; format: ADME, organism-based; conditions: in vivo, dose 10 mg/kg
[4] = Intrinsic clearance in human hepatocytes; format: ADME, cell-based, Hepatocyte
[5] = Intrinsic clearance in cynomolgus monkey hepatocytes; format: ADME, cell-based, Macaca fascicularis, Hepatocyte
[6] = Protein binding in human assessed as unbound fraction; format: ADME
[7] = molecular target: Muscarinic acetylcholine receptor M3 (Homo sapiens, UniProt P20309); assay: Antagonist activity at muscarinic M3 receptor (unknown origin)
[8] = Apparent permeability from apical to basolateral side in dog MDCK-MDR1 cells; format: ADME, cell-based, Canis lupus familiaris
[9] = Aqueous solubility of compound in pH 7.4 PBS measured; format: physicochemical
[10] = Protein binding in mouse assessed as unbound fraction; format: ADME
[11] = Protein binding in rat assessed as unbound fraction; format: ADME
[12] = Protein binding in mouse brain assessed as unbound fraction; format: ADME, tissue-based
[13] = Protein binding in rat brain assessed as unbound fraction; format: ADME, tissue-based
[14] = Half life in rat hepatocytes; format: ADME, cell-based, Hepatocyte
[15] = Half life in cynomolgus monkey hepatocytes; format: ADME, cell-based, Macaca fascicularis, Hepatocyte
[16] = Half life in human hepatocytes; format: ADME, cell-based, Hepatocyte
[17] = Half life in po dosed mouse; format: ADME, organism-based; conditions: in vivo
[18] = Half life in po dosed rat; format: ADME, organism-based; conditions: in vivo
[19] = Half life in iv dosed mouse; format: ADME, organism-based; conditions: in vivo
[20] = Half life in iv dosed rat; format: ADME, organism-based; conditions: in vivo
[21] = Cmax in mouse; format: ADME, organism-based; conditions: in vivo
[22] = Cmax in rat; format: ADME; conditions: in vivo
[23] = Clearance in mouse; format: ADME, organism-based; conditions: in vivo
[24] = Volume of distribution at steady state in rat; format: ADME; conditions: in vivo, read-out: Vdss
[25] = Volume of distribution at steady state in mouse; format: ADME, organism-based; conditions: in vivo, read-out: Vdss
[26] = Clearance in rat; format: ADME; conditions: in vivo
[27] = Unbound partition coefficient of the compound in rat incubated for 8 hrs; format: ADME; conditions: brain, read-out: K(p,uu,brain)
[28] = Unbound partition coefficient of the compound in mouse incubated for 8 hrs; format: ADME; conditions: brain, read-out: K(p,uu,brain)
[29] = Protein binding in cynomolgus monkey assessed as unbound fraction; format: ADME, Macaca fascicularis
[30] = Oral bioavailability in cynomolgus monkey; format: ADME, organism-based, Macaca fascicularis; conditions: in vivo, dose 10 mg/kg
[31] = Half life in po dosed cynomolgus monkey; format: ADME, organism-based, Macaca fascicularis; conditions: in vivo
[32] = Half life in iv dosed cynomolgus monkey; format: ADME, organism-based, Macaca fascicularis; conditions: in vivo
[33] = Cmax in cynomolgus monkey; format: ADME, Macaca fascicularis; conditions: in vivo
[34] = Volume of distribution at steady state in cynomolgus monkey; format: ADME, Macaca fascicularis; conditions: in vivo, read-out: Vdss
[35] = Clearance in cynomolgus monkey; format: ADME, Macaca fascicularis; conditions: in vivo, dose 1 mg/kg
[36] = Unbound partition coefficient of the compound in cynomolgus monkey incubated for 8 hrs; format: ADME, cell-free, Macaca fascicularis, Brain/Plasma; conditions: brain, read-out: K(p,uu,brain)

Sequence of Muscarinic acetylcholine receptor M3 (P20309 whole entry): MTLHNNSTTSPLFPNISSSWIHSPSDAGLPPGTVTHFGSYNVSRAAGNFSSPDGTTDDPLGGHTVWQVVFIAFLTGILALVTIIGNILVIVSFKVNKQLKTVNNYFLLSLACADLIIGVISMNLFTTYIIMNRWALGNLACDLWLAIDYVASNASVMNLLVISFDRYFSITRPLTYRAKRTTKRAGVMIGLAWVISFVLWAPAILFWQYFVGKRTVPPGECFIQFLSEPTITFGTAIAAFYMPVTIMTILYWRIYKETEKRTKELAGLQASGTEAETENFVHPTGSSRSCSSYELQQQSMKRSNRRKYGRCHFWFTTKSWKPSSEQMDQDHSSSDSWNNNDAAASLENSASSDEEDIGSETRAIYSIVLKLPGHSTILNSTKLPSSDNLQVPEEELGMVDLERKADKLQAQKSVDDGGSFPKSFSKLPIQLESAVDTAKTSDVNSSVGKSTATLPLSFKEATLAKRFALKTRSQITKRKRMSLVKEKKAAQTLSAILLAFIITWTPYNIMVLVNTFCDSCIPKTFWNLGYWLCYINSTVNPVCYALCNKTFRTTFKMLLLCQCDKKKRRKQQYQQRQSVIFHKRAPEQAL

O=C(OCC1CN2CCC1CC2)N1CCc2ccccc2[C@@H]1c1ccc(F)cc1 (some centres undefined)
EC50 [1]: 1990 nM

O=C(OC1CN2CCC1CC2)N1CCc2ccccc2[C@@H]1c1ccc(OC(F)(F)F)cc1 (some centres undefined)
EC50 [1]: 2600 nM

O=S(=O)(CC1CN2CCC1CC2)N1CCc2ccccc2[C@@H]1c1ccc(F)cc1 (some centres undefined)
EC50 [1]: 1700 nM

CS(=O)(=O)c1ccc([C@H]2c3ccccc3CCN2C(=O)OC2CN3CCC2CC3)cc1 (some centres undefined)
EC50 [1]: > 10000 nM

O=S(=O)(NC1CN2CCC1CC2)N1CCc2ccccc2[C@@H]1c1ccc(F)cc1 (some centres undefined)
EC50 [1]: > 10000 nM

O=C(OC1CN2CCC1CC2)N1CCc2ccccc2[C@@H]1c1ccc(F)cc1 (some centres undefined)
bioavailability [2]: 16%
bioavailability [3]: 64%
CLH [4]: 23 µL/min/kg
CLH [5]: 69.8 µL/min/kg
fraction unbound [6]: 0.06
EC50 [1]: 257 nM
IC50 [7]: 17 µM
Papp A→B [8]: 7.59 ×10⁻⁶ cm/s
solubility [9]: 1990 µM (≈ 757 µg/mL)
fraction unbound [10]: 0.02
fraction unbound [11]: 0.086
fraction unbound [12]: 0.008
fraction unbound [13]: 0.008
half-life [14]: 29 min
half-life [15]: 10 min
half-life [16]: > 240 min
half-life [17]: 4.1 min
half-life [18]: 2.1 min
half-life [19]: 2.1 min
half-life [20]: 1.9 min
Cmax [21]: 28 nM
Cmax [22]: 37 nM
clearance [23]: 44.2 mL/min/kg
Vd [24]: 4.65 L/kg
Vd [25]: 4.91 L/kg
clearance [26]: 198 mL/min/kg
Kp uu at 8 h [27]: 0.26
Kp uu at 8 h [28]: 1.08

O=C(OC1CN2CCC1CC2)N1CCc2ccccc2[C@@H]1c1cccc(F)c1 (some centres undefined)
EC50 [1]: 3550 nM

O=C(OC1CN2CCC1CC2)N1CCc2ccccc2[C@@H]1c1cccc(F)c1F (some centres undefined)
EC50 [1]: 1110 nM

O=C(NC1CN2CCC1CC2)N1CCc2ccccc2[C@@H]1c1ccc(F)cc1 (some centres undefined)
EC50 [1]: 265 nM
IC50 [7]: 10 µM
Papp A→B [8]: 0.95 ×10⁻⁶ cm/s
solubility [9]: 5960 µM (≈ 2260 µg/mL)

O=C(OCCC12CCN(CC1)CC2)N1CCc2ccccc2[C@@H]1c1ccc(F)cc1
EC50 [1]: > 10000 nM

O=C(NC1CN2CCC1CC2)C(=O)N1CCc2ccccc2[C@@H]1c1ccc(F)cc1 (some centres undefined)
EC50 [1]: 1610 nM

O=C(COC1CN2CCC1CC2)N1CCc2ccccc2[C@@H]1c1ccc(F)cc1 (some centres undefined)
EC50 [1]: 811 nM

O=C(OC1CN2CCC1CC2)N1CCc2ccccc2[C@@H]1c1ccc(Cl)cc1 (some centres undefined)
EC50 [1]: 339 nM
IC50 [7]: 1.48 µM

O=C(OC1CN2CCC1CC2)N1CCc2ccccc2[C@@H]1c1ccc(OC2CC2)cc1 (some centres undefined)
EC50 [1]: > 10000 nM

CC1(C)C(OC(=O)N2CCc3ccccc3[C@@H]2c2ccc(F)cc2)C2CCN1CC2 (some centres undefined)
EC50 [1]: 574 nM

O=C(OC1CN2CCC1CC2)N1CCc2ccccc2[C@@H]1c1ccc(F)c(F)c1 (some centres undefined)
EC50 [1]: 2030 nM
IC50 [7]: 10 µM

CN(C(=O)N1CCc2ccccc2[C@@H]1c1ccc(F)cc1)C1CN2CCC1CC2 (some centres undefined)
EC50 [1]: 1030 nM

C[C@]1(c2ccc(F)cc2)c2ccccc2CCN1C(=O)OC1CN2CCC1CC2 (some centres undefined)
EC50 [1]: 3460 nM

Fc1ccc([C@@H]2c3ccccc3CCN2CCC2CN3CCC2CC3)cc1 (some centres undefined)
EC50 [1]: > 10000 nM

O=C(OCC12CCN(CC1)CC2)N1CCc2ccccc2[C@H]1c1ccc(F)cc1
bioavailability [2]: 16%
bioavailability [3]: 41%
CLH [4]: 39.7 µL/min/kg
CLH [5]: 31.8 µL/min/kg
fraction unbound [6]: 0.086
EC50 [1]: 146 nM
fraction unbound [29]: 0.176
Papp A→B [8]: 3.01 ×10⁻⁶ cm/s
solubility [9]: 2670 µM (≈ 1050 µg/mL)
fraction unbound [10]: 0.048
fraction unbound [11]: 0.096
fraction unbound [12]: 0.008
fraction unbound [13]: 0.007
half-life [14]: 17 min
half-life [15]: 22 min
half-life [16]: 198 min
bioavailability [30]: 42%
half-life [17]: 2.9 min
half-life [18]: 5.2 min
half-life [31]: 6.8 min
half-life [19]: 2.2 min
half-life [20]: 2.2 min
half-life [32]: 6.4 min
Cmax [21]: 30 nM
Cmax [22]: 17 nM
Cmax [33]: 32 nM
clearance [23]: 51.8 mL/min/kg
Vd [24]: 16.2 L/kg
Vd [25]: 7.23 L/kg
Vd [34]: 9.6 L/kg
clearance [26]: 102 mL/min/kg
clearance [35]: 20.7 mL/min/kg
Kp uu at 8 h [27]: 0.4
Kp uu at 8 h [28]: 0.09
Kp uu at 8 h [36]: 0.33

O=C(OC1CN2CCC1CC2)N1CCc2ccccc2[C@H]1c1ccc(F)cc1 (some centres undefined)
EC50 [1]: > 10000 nM

COc1ccc([C@H]2c3ccccc3CCN2C(=O)OC2CN3CCC2CC3)cc1 (some centres undefined)
EC50 [1]: 2870 nM

O=C(CC1CN2CCC1CC2)N1CCc2ccccc2[C@@H]1c1ccc(F)cc1 (some centres undefined)
EC50 [1]: 222 nM
IC50 [7]: 30 µM
Papp A→B [8]: 2.68 ×10⁻⁶ cm/s

O=C(OC1CN2CCC1CC2)N1CCc2ccccc2[C@@H]1c1ccc(F)cc1F (some centres undefined)
EC50 [1]: 247 nM
IC50 [7]: 9.4 µM

O=C(C(O)C1CN2CCC1CC2)N1CCc2ccccc2[C@@H]1c1ccc(F)cc1 (some centres undefined)
EC50 [1]: 895 nM

O=C(O[C@@H]1CN2CCC1CC2)N1CCc2ccccc2[C@@H]1c1ccccc1
EC50 [1]: 1830 nM
IC50 [7]: 0.733 µM

O=C(OC1CN2CCC1(F)CC2)N1CCc2ccccc2C1c1ccc(F)cc1 (single isomer, unassigned)
EC50 [1]: 1250 nM

O=C(O[C@H]1CN2CCC1CC2)N1CCc2ccccc2[C@@H]1c1ccccc1 [SOLIFENACIN]
EC50 [1]: 1300 nM
IC50 [7]: 0.024 µM
